From ChEMBL document CHEMBL1201862, “PubChem BioAssay data set” (2004)
“And” between values parts separate entries of the source, which are not always exact repeats. Equal values may be shown once. The source made the active and inactive calls.

Legend:
[1] = DNA binding of candidate compounds, dose response, artefact control for RAD54 inhibitor project, biochemical, fluorescence polarization, cherry-pick (AID 651673); format: functional
Cytochrome P450 2D6 = Cytochrome P450 2D6 (Homo sapiens, UniProt P10635);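 also: CYP2D6 member of a cytochrome P450 panel assay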
Cytochrome P450 2C19 = Cytochrome P450 2C19 (Homo sapiens, UniProt P33261); assay: Cytochrome panel assay with activity outcomes. Panel member name: p450-cyp2c19 Compounds with AC50 equal or less than 10 uM are considered active; format: functional; details: read-out: AC50
Sequence of Cytochrome P450 2C19 (P33261 whole entry): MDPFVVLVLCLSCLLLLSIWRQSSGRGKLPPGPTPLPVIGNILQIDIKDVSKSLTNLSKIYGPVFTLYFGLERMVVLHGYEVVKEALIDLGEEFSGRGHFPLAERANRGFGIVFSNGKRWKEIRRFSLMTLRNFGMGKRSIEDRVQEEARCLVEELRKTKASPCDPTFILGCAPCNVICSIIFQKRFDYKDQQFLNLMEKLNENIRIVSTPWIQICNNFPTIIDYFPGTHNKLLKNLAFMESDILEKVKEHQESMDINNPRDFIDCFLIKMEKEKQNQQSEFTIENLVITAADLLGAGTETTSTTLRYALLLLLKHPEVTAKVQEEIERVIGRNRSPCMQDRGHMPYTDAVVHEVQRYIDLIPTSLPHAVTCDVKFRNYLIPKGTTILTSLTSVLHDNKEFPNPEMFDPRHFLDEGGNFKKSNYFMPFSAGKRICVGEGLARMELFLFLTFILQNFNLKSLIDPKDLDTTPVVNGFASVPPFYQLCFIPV

H4 = assay: Luminescence Cell-Based Dose Response HTS to Identify Activators of 5'UTR Stem-Loop Driven Prion Protein mRNA Translation in H4 Neuroglioblastoma Cells. [Related pubchem assays: 1829 (Project Summary), 1814 (Primary HTS)]; format: functional; details: Homo sapiens
cells [2] = format: functional, cell-based
[3] = Luminescence Cell-Based Dose Confirmation HTS to Identify Activators of 5'UTR Stem-Loop Driven Alpha-Synuclein mRNA Translation in H4 Neuroglioblastoma Cells. [Related pubchem assays: 1829 (Project Summary), 1814 (Primary HTS)]; format: functional
cells [4] = format: functional, cell-based; remark: listed apart in the source
[5] = Luminescence Cell-Based Dose Response HTS to Identify Activators of Luciferase Translation or Activity in H4 […] Cells. [Related pubchem assays: 1829 (Project Summary), 1814 (Primary HTS)]; format: functional
[6] = target: T1, DNA repair and recombination protein RAD54-like (Homo sapiens, UniProt Q92698); assay: inhibitors of human RAD54 branch migration, confirmation, biochemical, fluorescence, cherry-picked samples, dose series (AID 651657); format: functional
T1 sequence (Q92698 whole entry): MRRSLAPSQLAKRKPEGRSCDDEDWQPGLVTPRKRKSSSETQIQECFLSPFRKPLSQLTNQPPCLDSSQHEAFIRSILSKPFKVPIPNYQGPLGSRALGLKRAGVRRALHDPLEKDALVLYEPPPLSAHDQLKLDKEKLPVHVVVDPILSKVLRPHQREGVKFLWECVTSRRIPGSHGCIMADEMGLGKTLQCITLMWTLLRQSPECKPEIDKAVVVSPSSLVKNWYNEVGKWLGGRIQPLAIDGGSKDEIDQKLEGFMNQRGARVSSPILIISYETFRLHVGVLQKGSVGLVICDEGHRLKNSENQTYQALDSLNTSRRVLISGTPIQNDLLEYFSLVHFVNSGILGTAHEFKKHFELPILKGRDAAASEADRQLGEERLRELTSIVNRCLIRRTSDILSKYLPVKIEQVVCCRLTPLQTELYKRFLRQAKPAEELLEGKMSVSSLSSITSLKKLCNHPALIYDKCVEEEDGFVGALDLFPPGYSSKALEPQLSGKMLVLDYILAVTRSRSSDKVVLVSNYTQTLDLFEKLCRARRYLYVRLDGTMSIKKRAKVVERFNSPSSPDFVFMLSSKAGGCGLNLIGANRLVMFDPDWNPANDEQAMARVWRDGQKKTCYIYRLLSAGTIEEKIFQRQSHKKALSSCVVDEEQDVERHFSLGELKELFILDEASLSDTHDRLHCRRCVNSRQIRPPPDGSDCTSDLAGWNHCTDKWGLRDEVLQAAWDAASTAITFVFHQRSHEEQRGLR

[7] = LMP1-driven NF-kB reporter inhibition, dose response, cell-based, luciferase reporter, luminescence, dry powder, set 2 (AID 624376); format: functional
[8] = target: T2, Sentrin-specific protease 1 (Homo sapiens, UniProt Q9P0U3); assay: potency of human SENP1 inhibitors, dose response, biochemical, kinetic FRET (AID 651697); format: functional; details: read-out: IC50_Mean
T2 sequence (Q9P0U3 whole entry, the tested form may be a part): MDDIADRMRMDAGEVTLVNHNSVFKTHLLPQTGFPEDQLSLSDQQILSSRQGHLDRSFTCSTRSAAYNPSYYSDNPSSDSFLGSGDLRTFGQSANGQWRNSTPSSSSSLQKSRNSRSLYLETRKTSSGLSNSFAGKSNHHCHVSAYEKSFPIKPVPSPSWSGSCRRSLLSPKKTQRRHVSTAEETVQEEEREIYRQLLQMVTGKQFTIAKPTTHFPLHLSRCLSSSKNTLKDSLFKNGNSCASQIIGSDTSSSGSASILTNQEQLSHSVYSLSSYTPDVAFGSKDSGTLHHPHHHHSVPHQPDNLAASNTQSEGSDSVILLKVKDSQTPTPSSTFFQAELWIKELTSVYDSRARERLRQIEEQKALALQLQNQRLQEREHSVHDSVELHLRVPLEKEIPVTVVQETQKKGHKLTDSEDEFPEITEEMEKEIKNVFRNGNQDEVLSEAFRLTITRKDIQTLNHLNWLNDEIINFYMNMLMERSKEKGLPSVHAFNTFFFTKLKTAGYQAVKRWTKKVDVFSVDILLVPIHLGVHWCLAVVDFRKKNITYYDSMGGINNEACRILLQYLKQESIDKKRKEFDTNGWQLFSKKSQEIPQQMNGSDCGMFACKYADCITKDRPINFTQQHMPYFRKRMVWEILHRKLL

[9] = target: T2, Sentrin-specific protease 1; assay: Dose response confirmation of small molecule inhibitors of the catalytic domain of the SUMO protease, SENP1 in a FRET assay.; format: functional; details: read-out: IC50_Mean
[10] = target: Fructose-bisphosphate aldolase (Mycobacterium tuberculosis, UniProt P9WQA3); assay: Fluorescence-based biochemical high throughput dose response assay for inhibitors of the fructose-bisphosphate aldolase (FBA) of M. tuberculosis.; format: functional
Sequence of Fructose-bisphosphate aldolase (P9WQA3 whole entry): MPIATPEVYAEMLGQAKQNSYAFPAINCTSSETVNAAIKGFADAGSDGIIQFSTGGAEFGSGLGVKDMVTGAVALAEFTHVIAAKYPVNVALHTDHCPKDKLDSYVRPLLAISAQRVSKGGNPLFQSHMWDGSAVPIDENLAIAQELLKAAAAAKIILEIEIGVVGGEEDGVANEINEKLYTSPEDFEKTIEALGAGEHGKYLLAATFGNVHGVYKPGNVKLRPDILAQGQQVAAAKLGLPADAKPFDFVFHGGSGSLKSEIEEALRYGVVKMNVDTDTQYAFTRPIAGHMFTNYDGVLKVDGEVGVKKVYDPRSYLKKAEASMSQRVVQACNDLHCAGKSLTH

[11] = HEK293 cell viability, dose response, counter-screen for EBV LMP1 inhibitor project, dry powder, set 2 (AID 624374); format: functional
[12] = lymphoblastoid cell cytotoxicity, dose response, cytotoxicity control, plate reader, dry powder, set 2 (AID 624367); format: functional
HeLa = assay: HeLa cell cytotoxicity, dose response, cytotoxicity control, ATP luminescence, cherry-pick samples (AID 687004); format: functional, cell-based; details: Homo sapiens
[13] = target: T3, Ubiquitin-conjugating enzyme E2 N (Homo sapiens, UniProt P61088); format: functional;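 also: Dose-response confirmation in a TR-FRET assay detecting UBC13-driven polyubiquitin chain formation, inhibition measured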
T3 sequence (P61088 whole entry): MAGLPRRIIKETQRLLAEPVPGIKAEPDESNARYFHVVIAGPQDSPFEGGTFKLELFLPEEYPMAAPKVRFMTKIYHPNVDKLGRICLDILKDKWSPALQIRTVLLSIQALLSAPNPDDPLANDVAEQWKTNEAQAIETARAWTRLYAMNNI

[14] = target: DNA repair protein RAD52 homolog (Homo sapiens, UniProt P43351); format: functional, biochemical
Sequence of DNA repair protein RAD52 homolog (P43351 whole entry): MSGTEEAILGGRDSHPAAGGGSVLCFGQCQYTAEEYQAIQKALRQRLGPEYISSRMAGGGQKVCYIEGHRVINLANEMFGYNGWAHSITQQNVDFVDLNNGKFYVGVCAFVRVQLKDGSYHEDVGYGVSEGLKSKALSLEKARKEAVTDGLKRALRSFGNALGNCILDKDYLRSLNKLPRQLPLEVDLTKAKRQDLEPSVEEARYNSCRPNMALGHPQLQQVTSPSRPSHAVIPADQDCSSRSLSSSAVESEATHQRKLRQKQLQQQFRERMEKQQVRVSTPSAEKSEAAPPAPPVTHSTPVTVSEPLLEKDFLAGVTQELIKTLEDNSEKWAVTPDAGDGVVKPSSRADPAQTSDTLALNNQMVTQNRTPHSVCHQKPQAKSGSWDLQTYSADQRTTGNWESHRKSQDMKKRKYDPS

Albumin = Albumin (Bos taurus, UniProt P02769); assay: Counterscreen for inhibitors of T-cell receptor (TCR)-CD3 interaction: Fluorescence-based biochemical high throughput dose response assay to identify inhibitors of T-cell receptor (TCR)-CD3 interaction using a TAMRA-labeled BSA probe.; format: functional
Sequence of Albumin (P02769 whole entry): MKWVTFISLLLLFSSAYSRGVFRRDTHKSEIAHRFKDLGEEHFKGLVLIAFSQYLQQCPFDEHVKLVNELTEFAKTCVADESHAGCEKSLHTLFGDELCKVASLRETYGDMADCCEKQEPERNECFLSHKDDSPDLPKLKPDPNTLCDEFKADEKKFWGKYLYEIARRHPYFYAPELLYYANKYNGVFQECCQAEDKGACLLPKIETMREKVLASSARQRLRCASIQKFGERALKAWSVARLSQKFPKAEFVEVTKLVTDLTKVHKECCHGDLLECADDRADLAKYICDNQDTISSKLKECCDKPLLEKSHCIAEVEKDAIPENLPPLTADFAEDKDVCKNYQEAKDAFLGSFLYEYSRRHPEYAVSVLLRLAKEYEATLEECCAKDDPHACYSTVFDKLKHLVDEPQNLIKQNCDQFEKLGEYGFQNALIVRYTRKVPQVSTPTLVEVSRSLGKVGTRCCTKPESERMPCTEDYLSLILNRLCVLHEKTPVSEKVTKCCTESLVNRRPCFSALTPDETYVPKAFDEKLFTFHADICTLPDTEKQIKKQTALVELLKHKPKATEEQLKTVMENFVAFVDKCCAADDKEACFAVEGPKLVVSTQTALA

Steroidogenic factor 1 = Steroidogenic factor 1 (Homo sapiens, UniProt Q13285); assay: Counterscreen for inverse agonists of the liver receptor homolog-1 (LRH-1; NR5A2): Luminescence-based cell-based high throughput dose response assay to identify inverse agonists of the Steroidogenic Factor 1 Nuclear Receptor (SF1; NR5A1).; format: functional
Sequence of Steroidogenic factor 1 (Q13285 whole entry): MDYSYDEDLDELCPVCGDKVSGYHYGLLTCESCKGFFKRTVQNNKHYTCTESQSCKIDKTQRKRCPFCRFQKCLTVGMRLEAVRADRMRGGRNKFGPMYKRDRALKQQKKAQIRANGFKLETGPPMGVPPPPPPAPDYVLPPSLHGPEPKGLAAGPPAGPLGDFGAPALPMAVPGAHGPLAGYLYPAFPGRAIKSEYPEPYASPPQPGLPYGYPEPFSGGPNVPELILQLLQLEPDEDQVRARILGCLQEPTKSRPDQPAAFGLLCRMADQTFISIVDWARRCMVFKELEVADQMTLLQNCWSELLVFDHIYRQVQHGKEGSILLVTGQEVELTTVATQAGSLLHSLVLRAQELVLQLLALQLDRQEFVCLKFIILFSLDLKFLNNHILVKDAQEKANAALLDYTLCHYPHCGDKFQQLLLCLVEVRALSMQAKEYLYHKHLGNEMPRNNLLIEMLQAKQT

[15] = StAR promoter reporter inhibition counter-screen, dose response, counter-screen for LRH-1 inverse agonist project, cell-based, luminescence, luciferase reporter (AID 651969); format: functional
[16] = target: Nuclear receptor subfamily 5 group A member 2 (Homo sapiens, UniProt O00482); format: functional, cell-based;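 also: HEK293T cells transfected with LRH-1 and a StAR promoter luciferase reporter; potency for inhibitors that lower LRH-1 driven reporter light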
Sequence of Nuclear receptor subfamily 5 group A member 2 (O00482 whole entry): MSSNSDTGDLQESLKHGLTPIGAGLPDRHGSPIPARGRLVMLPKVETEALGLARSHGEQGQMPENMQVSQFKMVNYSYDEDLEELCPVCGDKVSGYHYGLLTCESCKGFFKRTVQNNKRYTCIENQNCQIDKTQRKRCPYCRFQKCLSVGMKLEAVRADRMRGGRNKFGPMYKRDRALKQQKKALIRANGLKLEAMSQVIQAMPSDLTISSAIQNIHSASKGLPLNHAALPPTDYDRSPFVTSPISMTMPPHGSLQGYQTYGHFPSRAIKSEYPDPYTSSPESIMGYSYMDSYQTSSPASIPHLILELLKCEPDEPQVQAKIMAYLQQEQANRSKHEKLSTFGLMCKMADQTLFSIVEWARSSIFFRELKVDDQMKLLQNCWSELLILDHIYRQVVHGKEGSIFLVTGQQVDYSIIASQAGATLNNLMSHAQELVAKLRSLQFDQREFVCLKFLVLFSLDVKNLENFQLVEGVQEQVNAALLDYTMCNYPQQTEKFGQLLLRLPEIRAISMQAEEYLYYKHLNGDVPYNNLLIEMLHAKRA

[17] = Counterscreen for […] of the human trace amine associated receptor 1 (TAAR1): Fluorescence-based cell-based high throughput dose response assay to identify nonselective Ga16 agonists.; format: functional
[18] = Counterscreen for antagonists of the human trace amine associated receptor 1 (hTAAR1): Fluorescence-based cell-based high throughput dose response assay to identify nonselective Ga16 antagonists.; format: functional
CHO = assay: cytotoxicity in TLR9-MyD88 CHO cells, dose response, cytotoxicity control for TLR9-MyD88 binding inhibitor project, cell-based, luminescence (AID 588339); format: functional, hamster; details: Cricetulus griseus;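 also: CHO cells stably coexpressing TLR9 and MyD88 fusions from primary screen; compound exposure lasted 48 hours before viability readout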
[19] = human group III sPLA2 inhibitors, dose response, biochemical, QFRET, IC50 (AID 743457);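 also: green fluorescence rise as the enzyme cleaves BODIPY PC-A2 in liposomes; potency for inhibition of the enzyme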
[20] = target: T4, Polyadenylate-binding protein 1 (Homo sapiens, UniProt P11940); assay: PABP1 MLLE–PAM2 interaction inhibitors, dose response, miRNA deadenylation inhibitor project, biochemical, fluorescence polarization, Cy5-PAM2 peptide, secondary (AID 602260); format: functional; details: read-out: IC50_Mean
T4 sequence (P11940 whole entry): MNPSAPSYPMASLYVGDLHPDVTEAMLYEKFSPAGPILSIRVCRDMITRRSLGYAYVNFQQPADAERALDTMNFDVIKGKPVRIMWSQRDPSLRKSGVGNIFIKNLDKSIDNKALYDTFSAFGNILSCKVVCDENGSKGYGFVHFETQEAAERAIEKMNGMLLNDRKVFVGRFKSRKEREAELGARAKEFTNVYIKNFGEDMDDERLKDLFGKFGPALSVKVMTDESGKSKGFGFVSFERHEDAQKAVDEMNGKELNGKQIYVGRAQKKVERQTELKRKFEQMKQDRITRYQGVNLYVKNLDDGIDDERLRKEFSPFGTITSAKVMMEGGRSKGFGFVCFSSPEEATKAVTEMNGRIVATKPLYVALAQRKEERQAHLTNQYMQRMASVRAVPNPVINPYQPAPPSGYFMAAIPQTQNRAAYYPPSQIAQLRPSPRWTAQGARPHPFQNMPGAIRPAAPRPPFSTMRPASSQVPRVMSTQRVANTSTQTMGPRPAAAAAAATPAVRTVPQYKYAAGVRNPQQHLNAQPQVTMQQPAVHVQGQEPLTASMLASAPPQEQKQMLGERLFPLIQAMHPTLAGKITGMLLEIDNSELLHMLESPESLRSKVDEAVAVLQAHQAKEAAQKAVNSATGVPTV

Genome polyprotein = Genome polyprotein (dengue virus type 2, UniProt P29990); assay: Dengue-2 NS5 methyltransferase inhibitors, primary screen, biochemical, confirmation dose response (AID 588689); format: functional
Vero = Vero cell cytotoxicity, cytotoxicity control for flavivirus capping enzyme inhibitors (AID 588742); format: functional; details: Chlorocebus sabaeus
HEK293 = assay: inhibitors of LMP1-driven NF-kB reporter, dose response, cell-based, HEK293, luciferase, cherry-pick (AID 588343); format: functional; details: Homo sapiens
Paired box protein Pax-8 = Paired box protein Pax-8 (Homo sapiens, UniProt Q06710); assay: inhibitors of PAX8-driven TPO luciferase reporter, dose response, RMG-I cells, cherry-pick (AID 687027); format: functional, cell-based;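 also: luciferase reporter driven by Pax8 target thyroperoxidase promoter measured by SteadyGlo luminescence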
[21] = non-specific cell cytotoxicity, dose response, cytotoxicity control for PAX8 inhibitor project, plate reader, dry powder samples (AID 743021); format: functional, cell-based
[22] = target: T4, Polyadenylate-binding protein 1; assay: PABP1 MLLE–PAM2 binding inhibitor potency, dose response, biochemical, fluorescence polarization, FITC-PAM2 peptide (AID 602259); format: functional; details: read-out: IC50_Mean
Beta Lactamase = Beta Lactamase (Pseudomonas aeruginosa, UniProt Q932Y6); assay: beta-lactamase reporter inhibitor potency, dose response, artefact control for TLR9-MyD88 binding inhibitor project, BLA reporter cells, FRET fluorescence (AID 588341); format: cell-based;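 also: cell based assay in CHO-K1 cells stably expressing beta-lactamase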
Sequence of Beta Lactamase (Q932Y6 whole entry): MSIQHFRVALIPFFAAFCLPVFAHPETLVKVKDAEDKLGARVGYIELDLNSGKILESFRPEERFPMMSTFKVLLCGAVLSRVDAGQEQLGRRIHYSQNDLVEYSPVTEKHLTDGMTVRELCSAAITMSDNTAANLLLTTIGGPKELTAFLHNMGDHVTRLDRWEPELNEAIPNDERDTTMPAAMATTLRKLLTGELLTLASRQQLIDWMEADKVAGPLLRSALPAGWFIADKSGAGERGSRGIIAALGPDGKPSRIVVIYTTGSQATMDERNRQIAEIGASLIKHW

Cryptococcus neoformans [23] = assay: PubChem AID 686997; format: functional, organism-based
Cryptococcus neoformans [24] = assay: Cryptococcus growth inhibition by alamar blue – cell lysis, cherry-picks, replicate tests, mechanism study for C. neoformans antifungal project, dose response (AID 686999); format: functional, organism-based
Beta-lactamase [25] = target: T5, Beta-lactamase (Pseudomonas aeruginosa, UniProt Q79MP6); assay: IMP-1 metallo-beta-lactamase inhibitors, dose response, selectivity assay for VIM-2 inhibitor project, biochemical, epi-absorbance (AID 1920)
T5 sequence (Q79MP6 whole entry): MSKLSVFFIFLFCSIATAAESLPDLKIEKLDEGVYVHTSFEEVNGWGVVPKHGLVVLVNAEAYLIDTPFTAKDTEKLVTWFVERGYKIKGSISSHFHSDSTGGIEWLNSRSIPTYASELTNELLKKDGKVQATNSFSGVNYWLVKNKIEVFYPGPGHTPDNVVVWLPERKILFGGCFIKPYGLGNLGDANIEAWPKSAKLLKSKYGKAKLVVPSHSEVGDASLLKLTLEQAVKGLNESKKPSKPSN

Beta-lactamase [26] = target: T5, Beta-lactamase; assay: […] counterscreen for selective VIM-2 inhibitors: dose response biochemical high throughput screening assay to identify inhibitors of IMP-1 metallo-beta-lactamase.
Beta-lactamase [27] = target: Beta-lactamase (Salmonella choleraesuis (strain SC-B67), UniProt Q5J463); assay: Epi-absorbance-based counterscreen for selective VIM-2 inhibitors: dose response biochemical high throughput screening assay to identify inhibitors of TEM-1 serine-beta-lactamase.
Sequence of Beta-lactamase (Salmonella choleraesuis (strain SC-B67), UniProt Q5J463) (Q5J463 whole entry): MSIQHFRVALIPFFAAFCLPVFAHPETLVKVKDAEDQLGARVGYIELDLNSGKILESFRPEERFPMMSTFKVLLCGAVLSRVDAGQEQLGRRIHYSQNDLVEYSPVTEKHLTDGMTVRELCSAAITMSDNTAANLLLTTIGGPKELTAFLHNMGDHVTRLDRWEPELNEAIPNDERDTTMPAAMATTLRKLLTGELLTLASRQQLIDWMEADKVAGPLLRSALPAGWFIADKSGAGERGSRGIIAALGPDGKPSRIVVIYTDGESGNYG

[28] = target: Matrix metalloproteinase-14 (Homo sapiens, UniProt P50281); assay: Dose Response confirmation of uHTS hits for a small molecule inhibitors of MT1-MMP activation in a fluorescence assay set 2.; format: functional
[29] = target: Induced myeloid leukemia cell differentiation protein Mcl-1 (Homo sapiens, UniProt Q07820); format: functional

## Cc1cc(C)c2c(N)c3ccccc3nc2n1
[1]
  AC50: 41.4 µM (active)
Cytochrome P450 2D6
  AC50: 20 µM (inconclusive)
Cytochrome P450 2C19
  AC50: 5.62 µM (inconclusive)
H4
  EC50: > 120 µM (not active)
Cells [2]
  EC50: > 350 µM (not active)
[3]
  EC50: 3.6 µM (active)
Cells [4]
  EC50: 32.3 µM (active)
[5]
  EC50: 8.34 µM (active)
[6]
  AC50: 5.7 µM (active)

## CC(C)(C)[S@@+]([O-])N1Cc2cc(C(=O)NCc3ccccn3)nc(-c3cccc(-c4ccccc4F)c3)c2[C@H]1CCO
[7]
  AbsAC35: 49.61 µM

## Oc1nc2cc3ccccc3cc2nc1-c1nnnn1C1CCCC1
[8]
  IC50: 2.21 µM (active)
[9]
  IC50: 1.05 µM (active)

## CNc1ccc2ncc(-c3ccc(OC)c(OC)c3)n2n1
[10]
  IC50: 1.69 µM (active)

## O=C(C[C@H]1C[C@H]2c3cc(NS(=O)(=O)c4ccc(F)cc4)ccc3O[C@H]2[C@H](CO)O1)NCc1ccc(Oc2ccccc2)cc1
[11]
  AbsAC35: 70.4 µM
[12]
  AbsAC35: 45.43 µM

## CN1CCN(CCCNC(=O)c2ccc(/C=C3\Oc4ccccc4N(Cc4ccccc4F)C3=O)cc2)CC1
HeLa
  AC50: 17 µM (active)
[13]
  IC50: > 20 µM (inactive)
[14]
  AC50: 8.16 µM (active)

## Cn1c(SCC(=O)NNC(=O)c2ccccc2O)nnc1-c1ccccc1
Albumin
  IC50: > 94.2 µM (inactive)

## CCCc1cc(=O)oc2c(C)c(OCC(=O)NCCN3CCOCC3)ccc12
Steroidogenic factor 1
  IC50: 12.4 µM (inactive)
[15]
  IC50: 35.9 µM (inactive)
[16]
  IC50: 35.9 µM (inactive)

## O=C(CCC(=O)N1CCOCC1)NCCc1ccc(F)cc1
[17]
  EC50: > 29.9 µM (inactive)
[18]
  IC50: > 29.9 µM (inactive)

## COc1ccccc1N(C(C)=O)C1=C(Cl)C(=O)c2ccccc2C1=O
CHO
  IC50: 1.03 µM (active)
[19]
  IC50: > 122 µM (inactive)
[20]
  IC50: > 66 µM (inactive)
Genome polyprotein
  IC50: 9.2 µM (active)
Vero
  CC50: 22.6 µM (active)
HEK293
  AC50: 5.98 µM (active)
Paired box protein Pax-8
  AC50: 3.59 µM (active)
[21]
  AC50: 27.8 µM (active)
[22]
  IC50: > 66 µM (inactive)
Beta Lactamase
  IC50: 5.37 µM (active)

## COC(=O)C1=C(C)N(Cc2ccccc2)C(=S)N[C@H]1c1ccc(Br)cc1
Cryptococcus neoformans [23]
  AC50: 50.4 µM (active) and 14.1 µM (active)
Cryptococcus neoformans [24]
  AC50: 42.2 µM (active)

## O=C(CSc1nnc(NC(=O)C2CCCCC2)s1)NCc1ccco1
Beta-lactamase [25]
  IC50: > 59.6 µM (inactive)
Beta-lactamase [26]
  IC50: > 59.6 µM (inactive)
Beta-lactamase [27]
  IC50: > 59.6 µM (inactive)

## Cc1ccc(C(=O)NNc2c3ccccc3nc3ccccc23)cc1
[28]
  IC50: > 80 µM (inactive)
[29]
  IC50: 5.38 µM (active)
